Where two headings read alike, the source gives them in different places.
What was measured:
Assay type in all cases: in vivo
Horseweed = experiment: Test F postemergence plant response; conditions: scale 0 to 100
kochia (Kochia scoparia) = experiment: Test E pre-/postemergence plant response; conditions: Bassia scoparia, scale 0 to 100, read-out: Plant response rating, Kochia; for pest or weed control at 16 g/ha: 16 g ai/ha; for pest or weed control at 31 g/ha: 31 g ai/ha; for pest or weed control at 62 g/ha: 62 g ai/ha; for pest or weed control at 125 g/ha: 125 g ai/ha
Procedure, shortened: (§1)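 Visual scores on a 0–100 scale (100 = complete control) were assigned against untreated controls 7–21 days after treatment in a controlled environment. Compounds, formulated with solvent plus surfactant, were applied to pre-emergence silt-loam sowings or to 1- to 4-leaf plants (2–18 cm) in potting medium.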

wild oat (Avena fatua) = experiment: Test E pre-/postemergence plant response; conditions: scale 0 to 100, read-out: Plant response rating, Oat, Wild; for pest or weed control at 16 g/ha: 16 g ai/ha; for pest or weed control at 31 g/ha: 31 g ai/ha; for pest or weed control at 62 g/ha: 62 g ai/ha; for pest or weed control at 125 g/ha: 125 g ai/ha
Procedure, shortened: as §1

[1] = tested on: wild buckwheat (Polygonum convolvulus); experiment: Test E pre-/postemergence plant response; conditions: Fallopia convolvulus, scale 0 to 100, read-out: Plant response rating, Buckwheat, Wild; for pest or weed control at 16 g/ha: 16 g ai/ha; for pest or weed control at 31 g/ha: 31 g ai/ha; for pest or weed control at 62 g/ha: 62 g ai/ha; for pest or weed control at 125 g/ha: 125 g ai/ha
Procedure, shortened: as §1

[2] = tested on: Russian thistle (Salsola iberica); experiment: Test E pre-/postemergence plant response; conditions: scale 0 to 100
Procedure, shortened: as §1

[3] = tested on: oilseed rape (Brassica napus); experiment: Test E pre-/postemergence plant response; conditions: scale 0 to 100, read-out: Plant response rating, Oilseed Rape; for plant injury at 16 g/ha: 16 g ai/ha; for plant injury at 31 g/ha: 31 g ai/ha; for plant injury at 62 g/ha: 62 g ai/ha; for plant injury at 125 g/ha: 125 g ai/ha
Procedure, shortened: as §1

Which results are given for `Fc1cccc(Oc2ncc(Br)cn2)c1-c1cc(C(F)F)no1` [Compound 145, 5-bromo-2-[2-[3-(difluoromethyl)-5-isoxazolyl]-3-fluorophenoxy]pyrimidine]?
Plant response rating, Horseweed (Horseweed; 16 g ai/ha Postemergence): 0; Plant response rating, Horseweed (Horseweed; 31 g ai/ha Postemergence): 20; Plant response rating, Horseweed (Horseweed; 62 g ai/ha Postemergence): 20; Plant response rating, Horseweed (Horseweed; 125 g ai/ha Postemergence): 40; pest or weed control at 16 g/ha (kochia (Kochia scoparia); post-emergence, Postemergence): 98%; pest or weed control at 31 g/ha (kochia (Kochia scoparia); post-emergence, Postemergence): 100%; pest or weed control at 62 g/ha (kochia (Kochia scoparia); post-emergence, Postemergence): 100%; pest or weed control at 125 g/ha (kochia (Kochia scoparia); post-emergence, Postemergence): 100%; pest or weed control at 16 g/ha (kochia (Kochia scoparia); pre-emergence, Preemergence): 60%; pest or weed control at 31 g/ha (kochia (Kochia scoparia); pre-emergence, Preemergence): 100%; pest or weed control at 62 g/ha (kochia (Kochia scoparia); pre-emergence, Preemergence): 100%; pest or weed control at 125 g/ha (kochia (Kochia scoparia); pre-emergence, Preemergence): 100%; pest or weed control at 16 g/ha (wild oat (Avena fatua); post-emergence, Postemergence): 15%; pest or weed control at 31 g/ha (wild oat (Avena fatua); post-emergence, Postemergence): 30%; pest or weed control at 62 g/ha (wild oat (Avena fatua); post-emergence, Postemergence): 40%; pest or weed control at 125 g/ha (wild oat (Avena fatua); post-emergence, Postemergence): 80%; pest or weed control at 16 g/ha (wild oat (Avena fatua); pre-emergence, Preemergence): 25%; pest or weed control at 31 g/ha (wild oat (Avena fatua); pre-emergence, Preemergence): 30%; pest or weed control at 62 g/ha (wild oat (Avena fatua); pre-emergence, Preemergence): 30%; pest or weed control at 125 g/ha (wild oat (Avena fatua); pre-emergence, Preemergence): 85%; pest or weed control at 16 g/ha ([1]; post-emergence, Postemergence): 100%; pest or weed control at 31 g/ha ([1]; post-emergence, Postemergence): 100%; pest or weed control at 62 g/ha ([1]; post-emergence, Postemergence): 100%; pest or weed control at 125 g/ha ([1]; post-emergence, Postemergence): 100%; pest or weed control at 16 g/ha ([1]; pre-emergence, Preemergence): 100%; pest or weed control at 31 g/ha ([1]; pre-emergence, Preemergence): 100%; pest or weed control at 62 g/ha ([1]; pre-emergence, Preemergence): 85%; pest or weed control at 125 g/ha ([1]; pre-emergence, Preemergence): 100%; Plant response rating, Russian Thistle ([2]; 16 g ai/ha Postemergence): 80; Plant response rating, Russian Thistle ([2]; 16 g ai/ha Preemergence): 0; Plant response rating, Russian Thistle ([2]; 31 g ai/ha Postemergence): 85; Plant response rating, Russian Thistle ([2]; 31 g ai/ha Preemergence): 10; Plant response rating, Russian Thistle ([2]; 62 g ai/ha Postemergence): 90; Plant response rating, Russian Thistle ([2]; 62 g ai/ha Preemergence): 60; Plant response rating, Russian Thistle ([2]; 125 g ai/ha Postemergence): 100; Plant response rating, Russian Thistle ([2]; 125 g ai/ha Preemergence): 100; plant injury at 16 g/ha ([3]; post-emergence, Postemergence): 70%; plant injury at 31 g/ha ([3]; post-emergence, Postemergence): 100%; plant injury at 62 g/ha ([3]; post-emergence, Postemergence): 100%; plant injury at 125 g/ha ([3]; post-emergence, Postemergence): 100%; plant injury at 16 g/ha ([3]; pre-emergence, Preemergence): 50%; plant injury at 31 g/ha ([3]; pre-emergence, Preemergence): 100%; plant injury at 62 g/ha ([3]; pre-emergence, Preemergence): 100%; plant injury at 125 g/ha ([3]; pre-emergence, Preemergence): 100%

What does the source list for `Fc1cccc(Oc2ncc(Cl)cn2)c1-c1cc(C(F)F)no1` [Compound 144, 5-chloro-2-[2-[3-(difluoromethyl)-5-isoxazolyl]-3-fluorophenoxy]pyrimidine]?
Plant response rating, Horseweed (Horseweed; 16 g ai/ha Postemergence): 0; Plant response rating, Horseweed (Horseweed; 31 g ai/ha Postemergence): 0; Plant response rating, Horseweed (Horseweed; 62 g ai/ha Postemergence): 10; Plant response rating, Horseweed (Horseweed; 125 g ai/ha Postemergence): 25; pest or weed control at 16 g/ha (kochia (Kochia scoparia); post-emergence, Postemergence): 100%; pest or weed control at 31 g/ha (kochia (Kochia scoparia); post-emergence, Postemergence): 100%; pest or weed control at 62 g/ha (kochia (Kochia scoparia); post-emergence, Postemergence): 100%; pest or weed control at 125 g/ha (kochia (Kochia scoparia); post-emergence, Postemergence): 100%; pest or weed control at 16 g/ha (kochia (Kochia scoparia); pre-emergence, Preemergence): 98%; pest or weed control at 31 g/ha (kochia (Kochia scoparia); pre-emergence, Preemergence): 100%; pest or weed control at 62 g/ha (kochia (Kochia scoparia); pre-emergence, Preemergence): 100%; pest or weed control at 125 g/ha (kochia (Kochia scoparia); pre-emergence, Preemergence): 100%; pest or weed control at 16 g/ha (wild oat (Avena fatua); post-emergence, Postemergence): 20%; pest or weed control at 31 g/ha (wild oat (Avena fatua); post-emergence, Postemergence): 25%; pest or weed control at 62 g/ha (wild oat (Avena fatua); post-emergence, Postemergence): 65%; pest or weed control at 125 g/ha (wild oat (Avena fatua); post-emergence, Postemergence): 90%; pest or weed control at 16 g/ha (wild oat (Avena fatua); pre-emergence, Preemergence): 35%; pest or weed control at 31 g/ha (wild oat (Avena fatua); pre-emergence, Preemergence): 30%; pest or weed control at 62 g/ha (wild oat (Avena fatua); pre-emergence, Preemergence): 65%; pest or weed control at 125 g/ha (wild oat (Avena fatua); pre-emergence, Preemergence): 75%; pest or weed control at 16 g/ha ([1]; post-emergence, Postemergence): 100%; pest or weed control at 31 g/ha ([1]; post-emergence, Postemergence): 95%; pest or weed control at 62 g/ha ([1]; post-emergence, Postemergence): 100%; pest or weed control at 125 g/ha ([1]; post-emergence, Postemergence): 100%; pest or weed control at 16 g/ha ([1]; pre-emergence, Preemergence): 85%; pest or weed control at 31 g/ha ([1]; pre-emergence, Preemergence): 100%; pest or weed control at 62 g/ha ([1]; pre-emergence, Preemergence): 100%; pest or weed control at 125 g/ha ([1]; pre-emergence, Preemergence): 100%; Plant response rating, Russian Thistle ([2]; 16 g ai/ha Postemergence): 85; Plant response rating, Russian Thistle ([2]; 16 g ai/ha Preemergence): 15; Plant response rating, Russian Thistle ([2]; 31 g ai/ha Postemergence): 90; Plant response rating, Russian Thistle ([2]; 31 g ai/ha Preemergence): 65; Plant response rating, Russian Thistle ([2]; 62 g ai/ha Postemergence): 95; Plant response rating, Russian Thistle ([2]; 62 g ai/ha Preemergence): 100; Plant response rating, Russian Thistle ([2]; 125 g ai/ha Postemergence): 98; Plant response rating, Russian Thistle ([2]; 125 g ai/ha Preemergence): 100; plant injury at 16 g/ha ([3]; post-emergence, Postemergence): 100%; plant injury at 31 g/ha ([3]; post-emergence, Postemergence): 100%; plant injury at 62 g/ha ([3]; post-emergence, Postemergence): 100%; plant injury at 125 g/ha ([3]; post-emergence, Postemergence): 100%; plant injury at 16 g/ha ([3]; pre-emergence, Preemergence): 35%; plant injury at 31 g/ha ([3]; pre-emergence, Preemergence): 80%; plant injury at 62 g/ha ([3]; pre-emergence, Preemergence): 100%; plant injury at 125 g/ha ([3]; pre-emergence, Preemergence): 100%

Source: patent US10131652B2, “Pyrimidinyloxy benzene derivatives as herbicides” (E. I. DU PONT DE NEMOURS AND COMPANY, priority 2014, dated 2018)
